According to patent publication US8629251B2, “Specific detection and quantification of phosphatidic acid using an Arabidopsis trigalactosyldiacylglycerol-4 (TGD4) protein” (Board of Trustees of Michigan State University, priority 2008, dated 2014):
Entries after “also recorded” stand apart in the source; their conditions may differ.

Key:
[1] = biological target: T1, Arabidopsis TGD2, DsRed-TGD2C minimal domain (DR-25, TGD2C T8, residues 201-225, SEQ ID NO:12) (Arabidopsis thaliana, UniProt Q9LTR2); test: Liposome-association assay, minimal domain DR-25; type: binding
T1 sequence (Q9LTR2 201-225): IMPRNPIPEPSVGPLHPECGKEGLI
Protocol: The liposome association assay was performed as previously reported. (31). Briefly, lipids (dioleoyl-phosphatidylcholine, DOPC or dioleoyl-PA, DOPA) were incubated in TBS (50 mM Tris-HCl, pH 7; 0.1 M NaCl) at 37° C. for an hour followed by vigorous vortexing for 5 min. The liposomes were precipitated at 20,000 g and washed twice with ice-cold TBS.
Liposomes (200 μg) were mixed with purified DsRed-TGD2 fusion protein and TBS to make a final 100 μL solution. The mixture was incubated at 30° C. for 30 min and washed twice with ice-cold TBS by centrifugation at 20,000 g at 4° C. The liposome pellet mixed with sample buffer was analyzed by SDS-PAGE (28). Immuno-detection of the His-tagged protein was accomplished using the above mentioned Penta-His antibody at 1:15,000 and the anti mouse antibody at 1:75,000 dilution.
The protein band was visualized by chemiluminescent detection kit from Sigma. The autoradiography film was scanned, distinct protein bands were quantified using computer software Multi Gauge V3.0 (Fujifilm USA, Valhalla, N.Y.) and resulted data were plotted and analyzed by OriginPro8 (Origin lab corporation, Northampton, Mass.).

[2] = biological target: T2, Arabidopsis TGD2, DsRed-TGD2C WT fusion protein, residues 119-381, SEQ ID NO:107 (Arabidopsis thaliana, UniProt Q9LTR2); test: Protein-lipid overlay assay, DsRed-TGD2C WT; type: binding; details: commercial phospholipid membrane strip
T2 sequence (Q9LTR2 121-381): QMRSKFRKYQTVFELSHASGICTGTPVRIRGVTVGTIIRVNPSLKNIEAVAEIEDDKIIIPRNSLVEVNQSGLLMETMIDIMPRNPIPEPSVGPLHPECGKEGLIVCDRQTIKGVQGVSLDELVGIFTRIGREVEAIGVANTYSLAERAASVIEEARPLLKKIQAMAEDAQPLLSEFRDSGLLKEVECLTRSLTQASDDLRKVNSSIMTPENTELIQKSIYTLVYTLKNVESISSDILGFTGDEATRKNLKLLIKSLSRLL
Protocol: Membrane lipid strips were purchased from Echelon Biosciences (Salt Lake City, Utah). The strips were first blocked with 3% bovine serum albumin in TBST (10 mM Tris-HCl, pH 8.0, 150 mM NaCl, and 0.25% Tween-20) for two hours and incubated in 0.5 μg/mL DsRed-TGD2 fusion protein solution in the blocking buffer at 4° C. overnight. The strips were washed 10 min for 3 times with TBST the next day and soaked in 3% bovine serum albumin in TBST with a Penta-His mouse monoclonal antibody (Sigma-Aldrich, St. Louis, Mo.) at 1:2,000 dilution at 4° C. overnight. The strips were washed twice with TBST and soaked in 3% bovine serum albumin in TBST with horseradish peroxidase-conjugated anti mouse antibody (Bio-Rad, Hercules, Calif.) at 1:20,000 dilution for an hour at room temperature. Following washing with TBST for 1 hour, the protein was detected by using the chemiluminescent detection system (Sigma-Aldrich).

[3] = biological target: T3, Arabidopsis TGD4, TGD4N-DsRED-His (N-terminal fragment 1-286, SEQ ID NO:130) (Arabidopsis thaliana, UniProt Q9M903); test: Liposome association assay, TGD4N-DsRED-His; type: binding; details: dioleoyl-PtdOH/dioleoyl-PtdCho liposomes, 0 to 80% PtdOH, FIG. 19B
T3 construct: made in house; host or cells: Escherichia coli BL21 (DE3)
T3 sequence (Q9M903 1-286): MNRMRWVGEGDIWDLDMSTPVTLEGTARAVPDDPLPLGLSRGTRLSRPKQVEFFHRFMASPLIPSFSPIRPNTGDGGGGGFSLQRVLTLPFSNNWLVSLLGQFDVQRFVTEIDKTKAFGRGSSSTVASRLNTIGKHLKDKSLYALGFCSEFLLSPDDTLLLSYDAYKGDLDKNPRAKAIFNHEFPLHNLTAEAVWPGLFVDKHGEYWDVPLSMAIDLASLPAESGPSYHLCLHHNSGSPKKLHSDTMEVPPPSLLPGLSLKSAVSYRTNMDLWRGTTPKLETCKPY
Protocol: (§1) Liposome Association Assay:
(§2) The liposome association assay was adapted from (Awai et al., 2006, Lu and Benning, 2009) with minor modifications. Dioleoyl-PtdCho and PtdOH with different acyl chain lengths and desaturation levels were used for making liposomes. In other liposomes 1-palmitoyl-2-(12-((7-nitro-2-1,3-benzoxadiazol-4-yl)amino)dodecanoyl)-sn-glycero-3-phosphate (NBD-PtdOH; Avanti, Alabaster, Ala.) was used. The lipids were mixed at indicated ratios to give a total lipid amount of 250 μg. The lipids were dried under a stream of nitrogen, resuspended in 0.5 ml TBS buffer with 0.2 M choline chloride and hydrated at 37° C. for 1 hour followed by vigorous vortexing for 2 minutes. The resulting multi-lamellar vesicles were centrifuged at 13,000×g for 10 minutes and then washed once with TBS buffer containing 0.2 M choline chloride. The liposomes were resuspended into 100 μl TBS buffer with 0.2 M choline chloride and incubated with 2 μg purified DsRED-TGD4-His protein and its derivatives. The protein liposome mixture was incubated on ice for 30 minutes followed by centrifugation at 13,000×g for 10 minutes and two washes with 500 μl TBS containing 0.2 M choline chloride. The resulting protein-liposome pellet was resuspended in 20 μl 2× Laemmli buffer (Laemmli, 1970) and processed by SDS-PAGE (Shapiro and Maizel, 1969).

[4] = biological target: T4, Arabidopsis TGD4, DsRED-ΔTGD4-His (hydrophobic region 287D-309F deleted, SEQ ID NO:133) (Arabidopsis thaliana, UniProt Q9M903, DEL287-309); test: Liposome association assay, DsRED-ΔTGD4-His; type: binding; details: dioleoyl-PtdOH/dioleoyl-PtdCho liposomes, 0 to 80% PtdOH, FIG. 19B
T4 construct: b369 deletes nt 859-924 (22 codons)
Protocol: as §1, §2

RafC (Raf-1 kinase) = details: literature (ref. 11); cited from earlier work

T4 sequence (Q9M903 other isoform, or with tags, fused parts or gaps DEL287-309): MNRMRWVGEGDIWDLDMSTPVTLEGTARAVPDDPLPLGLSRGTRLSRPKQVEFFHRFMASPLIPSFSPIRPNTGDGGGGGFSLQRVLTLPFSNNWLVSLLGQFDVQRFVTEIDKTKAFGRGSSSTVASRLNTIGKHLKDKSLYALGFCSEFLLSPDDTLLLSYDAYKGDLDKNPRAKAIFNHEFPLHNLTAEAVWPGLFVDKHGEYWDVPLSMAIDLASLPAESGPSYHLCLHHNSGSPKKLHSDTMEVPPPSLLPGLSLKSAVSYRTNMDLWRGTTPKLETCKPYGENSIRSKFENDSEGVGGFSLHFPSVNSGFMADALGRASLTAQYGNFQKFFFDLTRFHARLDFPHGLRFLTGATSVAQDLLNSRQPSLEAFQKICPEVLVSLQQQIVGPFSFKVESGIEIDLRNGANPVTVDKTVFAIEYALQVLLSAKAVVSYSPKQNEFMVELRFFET

CCCCCCCC/C=C\CCCCCCCC(=O)OC[C@H](COP(=O)(O)O)OC(=O)CCCCCCC/C=C\CCCCCCCC [PA, phosphatidic acid]
PA binding ([1]; PA liposomes, FIG. 4A): sufficient to mediate specific binding to PA
cooperativity of PA binding ([1]; mixed PA/PC liposomes, FIG. 5): loses positive cooperativity; also recorded: not cooperative
binding to lipids on membrane strip [2]: shows specificity for PA over other lipids
PtdOH binding affinity [3]: comparable to the full-length protein DsRED-TGD4-His
PtdOH binding activity [4]: did not require the central hydrophobic region of TGD4
RafC-PA association (RafC (Raf-1 kinase)): 20 mol % PA
